According to US4906666A, “Hydroxamic acids and pharmaceutical compositions containing them, and anti-allergic use thereof” (Boehringer Mannheim GmbH, priority 1986, dated 1990):

tested on: passively sensitized strip of pulmonary parenchyma (guinea pig); experiment: Inhibition of the antigen-induced constriction on the passively sensitized strip of pulmonary parenchyma, Superfusion; type: cell-based; settings: Cavia porcellus, concentration 20 μM
Description: (§1) The inhibiting action of the compounds according to the invention was expressed as a percentage reduction of the constriction amplitude of the "specimens with the test substance" in proportion to the "untreated control constrictions."

**Q.** `CCCc1c(OCCCSCC(=O)N(C)O)ccc(C(C)=O)c1O` [Example 1, N-Hydroxy-N-methyl-S-[3-(4-acetyl-3-hydroxy-2-propylphenoxy)-propyl]-thioacetamide] was tested. Which inhibition at 20 µM did it give?
**A.** 39%

**Q.** `CCCCCc1cccc(OCCCSCCC(=O)N(C)O)c1` [Example 2b, N--hydroxy-N--methyl-S--[3-(3-pentylphenoxy)-propyl]-3-thiopropionic acid amide] was tested. Which inhibition at 20 µM did it give?
**A.** 58%

**Q.** With `CCCc1c(OCCCCSCCC(=O)N(C)O)ccc(C(C)=O)c1O` [Example 2c, N--hydroxy-N--methyl-S--[4-(4-acetyl-3-hydroxy-2-propyl-phenoxy)-butyl]-3-thio-propionic acid amide] as the molecule, how does the inhibition at 20 µM read?
**A.** 72%

**Q.** How did the inhibition at 20 µM turn out when `CCCc1c(OCCCCSCC(=O)N(C)O)ccc(C(C)=O)c1O` [Example 2f, N--hydroxy-N--methyl-S--[4-(4-acetyl-3-hydroxy-2-propyl-phenoxy)-butyl]-thioacetamide] was run?
**A.** 48%

**Q.** How did the inhibition at 20 µM turn out when `CCCc1c(OCCCSCCC(=O)N(C)O)ccc(C(C)=O)c1O` [Example 2i, N--hydroxy-N--methyl-S--[3-(4-acetyl-3-hydroxy-2-propyl-phenoxy)-propyl]-3-thio-propionic acid amide] was run?
**A.** 63%

**Q.** For `CCCCCC(O)c1cccc(OCCCSCCCC(=O)N(C)O)c1` (stereo not shown) [Example 2l, N--hydroxy-N--methyl-S--[3-(3-{1-hydroxyhexyl}-phenoxy)-propyl]-4-thiobutyric acid amide], which inhibition at 20 µM is on record?
**A.** 44%

**Q.** How did the inhibition at 20 µM turn out when `CCCCCC(O)c1cccc(OCC(O)CSCCCC(=O)N(C)O)c1` (stereo not shown) [Example 2m, N--hydroxy-N--methyl-S--[3-(3-{1-hydroxyhexyl}-phenoxy)-2-hydroxypropyl]-4-thiobutyric acid amide] was run?
**A.** 29%

**Q.** `CCCCCC(O)c1cccc(OCCCCSCCC(=O)N(C)O)c1` (stereo not shown) [Example 2n, N--hydroxy-N--methyl-S--[4-(3-{1-hydroxyhexyl}-phenoxy)-butyl]-3-thiopropronic acid amide] was tested. Which inhibition at 20 µM did it give?
**A.** 33%

**Q.** With `CCCCCC(O)c1cccc(OCC=CCSCCC(=O)N(C)O)c1` (stereo not shown) [Example 2o, N--hydroxy-N--methyl-S--[4-(3-{1-hydroxyhexyl}-phenoxy)-but-2-enyl]-3-thiopropionic acid amide] as the molecule, how does the inhibition at 20 µM read?
**A.** 42%

**Q.** With `CCCc1c(OCCCSCCC(=O)ONC2CCCCC2)ccc(C(C)=O)c1O` [Example 2t, O--[S--(3-{4-acetyl-3-hydroxy-2-propylphenoxy}-propyl)-3-thiopropionyl]-cyclohexyl-hydroxylamine] as the molecule, how does the inhibition at 20 µM read?
**A.** 15%

**Q.** With `CCCCCC(O)c1cccc(OCCCSCCCC(=O)Nc2nn[nH]n2)c1` (stereo not shown) [Example 4c, N--[(1H)-tetrazol-5-yl]-S--[3-(3-{1-hydroxyhexyl}-phenoxy)-propyl]-4-thiobutyric acid amide] as the molecule, how does the inhibition at 20 µM read?
**A.** 29%

**Q.** With `CCCCCC(O)c1cccc(OCC(O)CSCCCC(=O)Nc2nn[nH]n2)c1` (stereo not shown) [Example 4d] as the molecule, how does the inhibition at 20 µM read?
**A.** 83%

**Q.** Which inhibition at 20 µM does the source give for `CCCCCC(O)c1cccc(OCCCCSCCC(=O)Nc2nn[nH]n2)c1` (stereo not shown) [Example 4e, N--[(1H)-tetrazol-5-yl]-S--[4-(3-{1-hydroxyhexyl}-phenoxy)-butyl]-3-thiopropionic acid amide] here?
**A.** 73%

**Q.** How did the inhibition at 20 µM turn out when `CCCCCC(O)c1cccc(OCC=CCSCCC(=O)Nc2nn[nH]n2)c1` (stereo not shown) [Example 4f, N--[(1H)-tetrazol-5-yl]-S--[4-(3-{1-hydroxyhexyl}-phenoxy)-but-2-enyl]-3-thiopropionic acid amide] was run?
**A.** 26%

**Q.** How did the inhibition at 20 µM turn out when `O=C(CCSCCCOc1ccc(Cl)c(Cl)c1)Nc1nn[nH]n1` [Example 4g, N--[(1H)-tetrazol-5-yl]-S--[3-(3,4-dichlorophenoxy)-propyl]-3-thiopropionic acid amide] was run?
**A.** 75%

**Q.** For `CCCc1c(OCCCSCCCCCc2nn[nH]n2)ccc(C(C)=O)c1O` [Example 6a, 5-{S--[3-(4-acetyl-3-hydroxy-2-propylphenoxy)-propyl]-5-thiopentyl}-(1H)-tetrazole], which inhibition at 20 µM is on record?
**A.** 70%

**Q.** `CCCc1c(OCCCSCCc2nn[nH]n2)ccc(C(C)=O)c1O` [Example 6b, 5-{S--[3-(4-acetyl-3-hydroxy-2-propylphenoxy)-propyl]-2-thioethyl}-(1H)-tetrazole] was tested. Which inhibition at 20 µM did it give?
**A.** 55%

**Q.** Which inhibition at 20 µM does the source give for `CCCCCc1ccccc1OCCCSCCc1nn[nH]n1` [Example 6c, 5-{S--[3-(2-pentylphenoxy)-propyl]-2-thioethyl}-(1H)-tetrazole] here?
**A.** 13%

**Q.** With `CCCc1c(OCCCSCCSc2nn[nH]n2)ccc(C(C)=O)c1O` [Example 7, {S-[3-(4-Acetyl-3-hydroxy-2-propylphenoxy)-propyl]-2-thioethyl}-5-mercapto-(1H)-tetrazole] as the molecule, how does the inhibition at 20 µM read?
**A.** 29%

**Q.** Which inhibition at 20 µM does the source give for `CCCCCC(O)c1cccc(OCCCSCCCC(=O)NO)c1` (stereo not shown) [Example 9a, N--hydroxy-S--[3-(3-{1-hydroxy-hexyl}-phenoxy)-propyl]-4-thiobutyric acid amide] here?
**A.** 11%

**Q.** For `CCCCCC(O)c1cccc(OCC(O)CSCCCC(=O)NO)c1` (stereo not shown) [Example 9b, N--hydroxy-S--[3-(3-{1-hydroxy-hexyl}-phenoxy)-2-hydroxy-propyl]-4-thiobutyric acid amide], which inhibition at 20 µM is on record?
**A.** 21%

**Q.** How did the inhibition at 20 µM turn out when `CCCCCC(O)c1cccc(OCCCCSCCC(=O)NO)c1` (stereo not shown) [Example 9c, N--hydroxy-S--[4-(3-{1-hydroxy-hexyl}phenoxy)-butyl]-3-thiopropionic acid amide] was run?
**A.** 27%

tested on: passively sensitized strip of pulmonary parenchyma (guinea pig); experiment: Inhibition of antigen-caused constriction of passively sensitized guinea pig pulmonary parenchyma strips in vitro (Organ Bath); type: cell-based, Pirbright-White guinea pigs; settings: Cavia porcellus, concentration 5 μg/ml, 20 min preincubation at 37° C., ovalbumin constriction, read-out: Inhibition (%) of the antigen-induced constriction, Organ Bath
Description: Activity of the inventive compounds was shown by the following testing in vitro. […] For this study of the inventive compounds, a measurement was made of the inhibition of the antigen-caused constriction of passively sensitized strips of guinea pig lung parenchyma, as described herewith:
Pirbright-White guinea pigs were stunned by a blow to the neck and bled. The lungs were flushed largely free of blood in situ with Krebs' buffer, pH 7.4.
Then the lung was removed, cut into strips (approx. 20×4×4 mm) and the strips were passively sensitized for one hour at room temperature with a 1:50 dilution of a homologous anti-ovalbumin antiserum and then washed once with Krebs' buffer.
The antiserum had previously been produced as described by Davies et al, (Quantitative studies on anaphylaxis in guinea pigs passively sensitized with homologous antibody. Inter. Arch. Allergy 41, 648-654 (1971)) in guinea pigs of the same strain by the repeated injection of ovalbumin (2×crystallized) with the addition of complete Freund's adjuvant.
Until it was used, the antiserum was stored undiluted at -18° C.
Then the lung strips were suspended singly in 10-milliliter water baths with a bias weight of 1.2 g on an isometric measuring receptable.
Then the baths were filled with Krebs' buffer and continually gassed at 37°° C. with O2 (95%) and CO2 (5%).
The constrictions of the lung strips were recorded through an amplifier on a plotter.
After a 30-minute habituating phase, histamine control spasms were produced in order to establish the reactivity of the lung specimens, washed, then the test substance was preincubated for 20 minutes at 37° C., and then the ovalbumin constriction was produced.
as §1

**Q.** How did the inhibition at 5 µg/mL turn out when `CCCc1c(OCCCSCCC(=O)N(C)O)ccc(C(C)=O)c1O` [Example 2i, N--hydroxy-N--methyl-S--[3-(4-acetyl-3-hydroxy-2-propyl-phenoxy)-propyl]-3-thio-propionic acid amide] was run?
**A.** 36%

**Q.** How did the inhibition at 5 µg/mL turn out when `C=CCc1c(OCCCSCCc2nn[nH]n2)ccc(C(C)=O)c1O` [Example 6d, 5-{S--[3-(4-acetyl-3-hydroxy-2-allylphenoxy)-propyl]-2-thioethyl}-(1H)-tetrazole] was run?
**A.** 24%

same assay, conditions: concentration 5 μg/ml, 20 min preincubation at 37° C., ovalbumin constriction

**Q.** With `CCCc1c(OCC#CCSCCC(=O)N(C)O)ccc(C(C)=O)c1O` [Example 2g, N--hydroxy-N--methyl-S--[4-(acetyl-3-hydroxy-2-propyl-phenoxy)-but-2-ynyl]-3-thiopropionic acid amide] as the molecule, how does the “Inhibition (%) of the antigen-induced constriction, Organ Bath” value read?
**A.** 67%
